Format in all cases: biochemical
In test [1] the target is T1, Human FAAH (MBPΔTMhFAAH) (Homo sapiens, UniProt O00519).
T1 construct: made in house; host or cells: E. coli (pMALcE4 vector)
T1 sequence (O00519 30-579 limits assumed): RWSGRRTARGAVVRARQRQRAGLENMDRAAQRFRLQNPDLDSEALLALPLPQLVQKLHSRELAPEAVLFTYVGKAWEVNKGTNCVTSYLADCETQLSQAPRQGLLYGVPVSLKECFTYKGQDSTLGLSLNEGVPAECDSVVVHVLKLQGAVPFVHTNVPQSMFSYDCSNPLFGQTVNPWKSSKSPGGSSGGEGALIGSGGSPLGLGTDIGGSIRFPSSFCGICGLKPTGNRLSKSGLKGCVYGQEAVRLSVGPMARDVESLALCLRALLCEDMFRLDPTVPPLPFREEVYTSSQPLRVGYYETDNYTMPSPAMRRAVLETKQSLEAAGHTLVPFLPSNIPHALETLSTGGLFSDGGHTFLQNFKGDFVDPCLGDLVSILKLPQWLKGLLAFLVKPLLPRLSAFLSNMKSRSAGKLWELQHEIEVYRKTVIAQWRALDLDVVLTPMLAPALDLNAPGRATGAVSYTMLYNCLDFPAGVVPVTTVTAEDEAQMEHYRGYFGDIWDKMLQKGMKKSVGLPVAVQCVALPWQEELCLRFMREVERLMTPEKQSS
The experiment in a line: Fluorescent assay protocol for hFAAH. The following applies: human FAAH (MBP fusion, ΔTM), procedure as for rFAAH. As for the experimental part:
Human FAAH without putative transmembrane domain following maltose binding protein was expressed in E. coli cells using pMALcE4 vector Alapafuja et al J. Med. Chem. (2012) 55: 10074-89.
Procedure was followed as described for hMAGL, except that arachidonoyl-methyl coumarin amide (AAMCA) was used as fluorigenic substrate. Compounds were diluted in 50:50 DMSO/assay buffer (50 mM HEPES, 1 mM EDTA, 0.1% BSA, pH 7.4) so as to have a final DMSO concentration below 8% in each reaction. For the screening assay, 3 concentrations (1 μM, 10 μM, and 100 μM) of test compounds, 15 μg of ΔTM rFAAH and assay buffer were pre-incubated for 15 min at 25° C. AAMCA (20 μM, 2×Km) was added prior to incubation at 25° C. and kinetic fluorescence reading every 20 minutes (λex=360/λem=460) for 4 hours on a BioTek Synergy HT Microplate Reader (BioTek Instruments, Winooski, Vt.). The fluorescence reading at the 3 hour time point (linear enzyme kinetics) was used to calculate percent inhibition based on control assays without inhibitor present. All FAAH assays were performed in triplicate for each inhibitor concentration, and IC50 values determined using Prizm software (GraphPad Software, Inc.).
Procedure was followed as described for rFAAH.

Test [2] deals with T2, ΔTM rat FAAH (Rattus norvegicus, UniProt P97612).
T2 construct: Preparation of Transmembrane Domain-Deleted Rat FAAH (ΔTM rFAAH); made in house; host or cells: E. coli
T2 sequence (P97612 30-579 limits assumed): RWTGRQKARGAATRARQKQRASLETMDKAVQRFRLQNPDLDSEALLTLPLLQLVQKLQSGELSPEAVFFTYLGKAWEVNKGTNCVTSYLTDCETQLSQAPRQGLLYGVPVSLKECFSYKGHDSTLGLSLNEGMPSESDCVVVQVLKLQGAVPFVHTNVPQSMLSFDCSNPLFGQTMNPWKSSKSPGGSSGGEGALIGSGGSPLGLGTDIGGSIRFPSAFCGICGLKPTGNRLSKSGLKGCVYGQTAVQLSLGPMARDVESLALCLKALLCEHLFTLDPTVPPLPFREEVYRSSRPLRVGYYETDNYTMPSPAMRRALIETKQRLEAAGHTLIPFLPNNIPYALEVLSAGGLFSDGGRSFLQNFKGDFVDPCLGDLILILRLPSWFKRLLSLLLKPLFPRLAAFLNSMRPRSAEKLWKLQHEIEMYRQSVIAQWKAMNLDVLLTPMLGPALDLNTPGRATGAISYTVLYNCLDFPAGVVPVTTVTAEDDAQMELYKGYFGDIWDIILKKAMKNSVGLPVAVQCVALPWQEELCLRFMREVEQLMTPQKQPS
As to the kind of experiment: Fluorescent assay protocol for ΔTM rat FAAH (AAMCA substrate). The following applies: 15 min preincubation, read-out: IC50 rFAAH. The protocol:
Procedure was followed as described for hMAGL, except that arachidonoyl-methyl coumarin amide (AAMCA) was used as fluorigenic substrate. […] For the screening assay, 3 concentrations (1 μM, 10 μM, and 100 μM) of test compounds, 15 μg of ΔTM rFAAH and assay buffer were pre-incubated for 15 min at 25° C. […] The fluorescence reading at the 3 hour time point (linear enzyme kinetics) was used to calculate percent inhibition based on control assays without inhibitor present. All FAAH assays were performed in triplicate for each inhibitor concentration, and IC50 values determined using Prizm software (GraphPad Software, Inc.).

For test [3], the target named is T3, Human MAGL (hMAGL) (Homo sapiens, UniProt Q99685).
T3 construct: hexahistidine; made in house; host or cells: E. coli
T3 sequence (Q99685 1-303): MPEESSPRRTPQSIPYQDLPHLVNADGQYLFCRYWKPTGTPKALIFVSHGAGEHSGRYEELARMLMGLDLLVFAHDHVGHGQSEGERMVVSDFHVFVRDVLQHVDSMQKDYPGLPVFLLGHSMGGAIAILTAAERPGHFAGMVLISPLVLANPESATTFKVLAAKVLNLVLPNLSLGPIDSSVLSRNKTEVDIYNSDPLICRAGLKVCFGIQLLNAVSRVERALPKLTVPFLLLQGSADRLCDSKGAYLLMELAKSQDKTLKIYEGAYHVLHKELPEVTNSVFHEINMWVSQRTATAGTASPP
As to the kind of experiment: Fluorescent assay protocol for hMAGL (AHMMCE substrate). To be noted: recombinant human MAGL, AHMMCE substrate, 15 min preincubation; read-out: IC50 hMAGL. As for the experimental part: (§1) This medium throughput assay involved a 96-well plate format in which hMAGL activity was monitored by the hydrolysis of the substrate 7-hydroxy-6-methoxy-4-methylcoumarin ester (AHMMCE) to form the fluorescent product, coumarin. […] Upon the addition of AHMMCE, the reaction was incubated at 25° C. for 120 min; fluorescence readings were taken every 15 min at 360 nm/460 nm (λexcitation/λemission) using a Synergy HT Plate Reader (Bio-Tek, Winooski, Vt.). […] External standards were used to convert relative fluorescence units to the amount of 4-methylcoumarin formed. All MAGL assays were performed in triplicate for each inhibitor concentration, and IC50 values were calculated using Prizm software (GraphPad Software, Inc., San Diego, Calif.).

In test [4] the target is T4, Rat MAGL (rMAGL) (Rattus norvegicus, UniProt Q8R431).
T4 construct: made in house; host or cells: E. coli
T4 sequence (Q8R431 1-303): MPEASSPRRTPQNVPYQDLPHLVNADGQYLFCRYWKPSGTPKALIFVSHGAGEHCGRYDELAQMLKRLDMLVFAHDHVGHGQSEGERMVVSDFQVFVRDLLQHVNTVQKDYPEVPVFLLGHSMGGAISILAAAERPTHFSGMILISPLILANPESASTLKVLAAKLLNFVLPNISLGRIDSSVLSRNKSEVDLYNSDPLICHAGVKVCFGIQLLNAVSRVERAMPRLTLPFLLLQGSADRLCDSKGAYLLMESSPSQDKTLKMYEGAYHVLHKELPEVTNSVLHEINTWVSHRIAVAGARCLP
As to the kind of experiment: Fluorescent assay protocol for rMAGL. The following applies: recombinant rat MAGL, procedure as for hMAGL; read-out: IC50 rMAGL. The protocol: as §1
Procedure was followed as described for hMAGL.

For orientation: IC50 means the concentration needed to halve the response being measured. With `O=C(N1CC(OCc2ccc(Br)cc2)C1)n1cnc(-c2ccccc2)c1` [Example 86, (3-(4-Bromobenzyloxy)azetidin-1-yl)(4-phenyl-1H-imidazol-1-yl)methanone], the IC50 was 10 to 100 nM in test [1], 10 to 100 nM in test [2], greater than 1000 nM in test [3] and greater than 1000 nM in test [4].
Turning to `CC1CN(c2ccccc2)CCN1C(=O)n1cnc(-c2ccccc2)c1` (stereo not shown) [Example 23, (2-methyl-4-phenylpiperazin-1-yl)(4-phenyl-1H-imidazol-1-yl)methanone], the IC50 was 110 to 1000 nM in test [1], 10 to 100 nM in test [2], greater than 1000 nM in test [3] and greater than 1000 nM in test [4].
`CC1CN(C(=O)n2cnc(-c3ccccc3)c2)CCN1c1ccccc1` (stereo not shown) [Example 24, (3-methyl-4-phenylpiperazin-1-yl)(4-phenyl-1H-imidazol-1-yl)methanone]: the half-inhibitory concentration (IC50) in test [1] is 110 to 1000 nM; in test [2], 10 to 100 nM; in test [3], greater than 1000 nM; in test [4], greater than 1000 nM.
Consider `COC(=O)c1cccc(OC(=O)N2CCC(OC(c3ccccc3)c3ccccc3)CC2)c1` [Example 55, 3-(methoxycarbonyl)phenyl 4-(benzhydryloxy)piperidine-1-carboxylate], for which the IC50 lay in the range of 10 to 100 nM in test [1], 10 to 100 nM in test [2], 10 to 100 nM in test [3] and 110 to 1000 nM in test [4].
Turning to `N#Cc1cccc(OC(=O)N2CCN(C(c3ccc(F)cc3)c3ccc(F)cc3)CC2)c1` [Example 40, 3-cyanophenyl 4-(bis(4-fluorophenyl)methyl)piperazine-1-carboxylate], the IC50 in test [1] and in test [2] was greater than 1000 nM throughout.
Turning to `CC(C)C(c1ccccc1)N1CCN(C(=O)Oc2cccc(C#N)c2)CC1` (stereo not shown) [Example 35, 3-Cyanophenyl 4-(2-methyl-1-phenylpropyl)piperazine-1-carboxylate], the IC50 in test [1], in test [2] and in test [3] was greater than 1000 nM in each case.
With `O=C(Oc1cccc(C(F)(F)F)c1)N1CC(OCc2ccc(Cl)cc2)C1` [Example 75, 3-(Trifluoromethyl)phenyl 3-(4-chlorobenzyloxy)azetidine-1-carboxylate], the IC50 is 10 to 100 nM in test [1], 10 to 100 nM in test [2], 110 to 1000 nM in test [3] and greater than 1000 nM in test [4].
On to `Cc1ccc(S(=O)(=O)N2CCN(C(=O)Oc3ccc(-c4ccc(F)cc4)cc3O)CC2)cc1` [Example 66, 4′-fluoro-3-hydroxy-[1,1′-biphenyl]-4-yl 4-tosylpiperazine-1-carboxylate], for which the IC50 in test [1] is greater than 1000 nM; in test [2], greater than 1000 nM; in test [3], 10 to 100 nM; in test [4], 10 to 100 nM.
For the molecule `O=C(N1C[C@@H]2C[C@H]1CN2Cc1cccc(-c2ccccc2)c1)n1cnc(Br)c1` [Example 100, ((1S,4S)-5-([1,1′-biphenyl]-3-ylmethyl)-2,5-diazabicyclo[2.2.1]heptan-2-yl)(4-bromo-1H-imidazol-1-yl)methanone], the concentration for half-maximal inhibition (IC50) in test [1] is 10 to 100 nM; in test [2], 10 to 100 nM; in test [3], greater than 1000 nM; in test [4], greater than 1000 nM.
Take `C[C@H]1CN(C(=O)n2cnc(-c3ccccc3)c2)CCN1Cc1cccc(-c2ccccc2)c1` [Example 21, (S)-(4-([1,1′-biphenyl]-3-ylmethyl)-3-methylpiperazin-1-yl)(4-phenyl-1H-imidazol-1-yl)methanone]: the IC50 in test [1] is 110 to 1000 nM; in test [2] it was 110 to 1000 nM; in test [3] it was greater than 1000 nM; in test [4], greater than 1000 nM.
Regarding `N#Cc1cccc(OC(=O)N2CCN(C3c4ccccc4-c4ccccc43)CC2)c1` [Example 41, 3-cyanophenyl 4-(9H-fluoren-9-yl)piperazine-1-carboxylate], the IC50 in test [1] and in test [2] was 110 to 1000 nM throughout.
Regarding `N#Cc1cccc(OC(=O)N2CCN(C(c3ccccc3)C3CCCC3)CC2)c1` (stereo not shown) [Example 37, 3-cyanophenyl 4-(cyclopentyl(phenyl)methyl)piperazine-1-carboxylate], the IC50 in test [1] and in test [2] was 10 to 100 nM each time.
Consider `N#Cc1ccc(F)c(OC(=O)N2CCC(C(c3ccccc3)c3ccccc3)CC2)c1` [Example 49, 5-cyano-2-fluorophenyl 4-benzhydrylpiperidine-1-carboxylate], for which the IC50 in test [1] and in test [2] was greater than 1000 nM throughout.
As for `N#Cc1cccc(OC(=O)N2CCC(OC(c3ccccc3)c3ccccc3)CC2)c1` [Example 58, 3-cyanophenyl 4-(benzhydryloxy)piperidine-1-carboxylate], the IC50 in test [1] and in test [2] was greater than 1000 nM each time.
For `N#Cc1cccc(OC(=O)N2CCN(C(c3ccccc3)c3ccccc3)CC2)c1` [Example 44, 3-Cyanophenyl 4-benzhydrylpiperazine-1-carboxylate], the IC50 in test [1] and in test [2] was 10 to 100 nM in each case.
For the molecule `N#Cc1cc(O)cc(OC(=O)N2CCC(C(c3ccccc3)c3ccccc3)CC2)c1` [Example 50, 3-cyano-5-hydroxyphenyl 4-benzhydrylpiperidine-1-carboxylate], the IC50 in test [1] and in test [2] was greater than 1000 nM in each case.

These data come from US11214578B2, “Urea/carbamates FAAH MAGL or dual FAAH/MAGL inhibitors and uses thereof” (Northeastern University, priority 2014, dated 2022).
